# Results reported in US10076519B2 (CYTOKINETICS, INC., priority 2010, dated 2018).
# Test system: rabbit skeletal myofibrils (fast skeletal myofibrils)
# Experiment: Activation of fast skeletal myofibrils (PUMA assay, PK/LDH-coupled ATPase at pCa25)
# Type: biochemical
# Method in brief: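 Detergent-washed rabbit psoas myofibrils (~90% fast fibres, calcium-regulated) assayed at calcium giving 25% of maximal ATPase rate (pCa25). ADP turnover coupled via pyruvate kinase/lactate dehydrogenase to NADH oxidation, read at 340 nm. Buffer 12 mM PIPES, 2 mM MgCl2, 1 mM DTT, pH 6.8; AC1.4 values derived.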
# [1] = median AC1.4 class, procedure of Example 39
# [2] = AC1.4 determined according to the procedure of Example 39, reported as class symbols
SMILES,Mean AC1.4 [1],Mean AC1.4 [2],further results
"Fc1cccnc1C1(CNc2ccc(-c3ccc4cn[nH]c4c3)nn2)CC(F)(F)C1 [(6-(1H-indazol-6-yl)pyridazin-3-yl){[3,3-difluoro-1-(3-fluoro(2-pyridyl))cyclobutyl]methyl}amine]",B (B=1-10 uM),–,–
Fc1cccnc1C1(CNc2ccc(-c3ccc4cn[nH]c4c3)nn2)CCC1 [(6-(1H-indazol-6-yl)pyridazin-3-yl){[(3-fluoro(2-pyridyl))cyclobutyl]methyl}amine],–,A (A=<1 uM),–
COc1cccnc1C1(CNc2ccc(-c3ccc4cn[nH]c4c3)nn2)CCC1 [(6-(1H-indazol-6-yl)pyridazin-3-yl){[(3-methoxy(2-pyridyl))cyclobutyl]methyl}amine],–,B (B=1-10 uM),–
Fc1ccc(C2(CNc3ccc(-c4ccc5cn[nH]c5c4)nn3)CCC2)cc1 [(6-(1H-indazol-6-yl)pyridazin-3-yl){[(4-fluorophenyl)cyclo-butyl]methyl}amine],–,A (A=<1 uM),–
COc1ccnc(C2(CNc3ccc(-c4ccc5cn[nH]c5c4)nn3)CCC2)c1 [(6-(1H-indazol-6-yl)pyridazin-3-yl){[(4-methoxy(2-pyridyl))cyclobutyl]methyl}amine],–,A (A=<1 uM),–
COc1ccc(C2(CNc3ccc(-c4ccc5cn[nH]c5c4)nn3)CCC2)nc1 [(6-(1H-indazol-6-yl)pyridazin-3-yl){[(5-methoxy(2-pyridyl))cyclobutyl]methyl}amine],–,B (B=1-10 uM),–
COc1cccc(C2(CNc3ccc(-c4ccc5cn[nH]c5c4)nn3)CCC2)n1 [(6-(1H-indazol-6-yl)pyridazin-3-yl){[(6-methoxy(2-pyridyl))cyclobutyl]methyl}amine],–,A (A=<1 uM),–
"Fc1cccnc1C1(CNc2ccc(-c3nn[nH]n3)nn2)CCC1 [(6-(2H-1,2,3,4-tetraazol-5-yl)pyridazin-3-yl){[(3-fluoro(2-pyridyl))cyclobutyl]methyl}amine]",D (D=>20 uM),–,–
Fc1cccnc1C1(CNc2ccc(C3CNC3)nn2)CCC1 [(6-azetidin-3-ylpyridazin-3-yl){[(3-fluoro(2-pyridyl))cyclobutyl]methyl}amine],D (D=>20 uM),–,–
CC(C)(CNc1ccc(-c2ccc3[nH]cnc3c2)nn1)c1ccc(F)cc1 [(6-benzimidazol-5-ylpyridazin-3-yl)[2-(4-fluorophenyl)-2-methylpropyl]amine],–,A (A=<1 uM),–
Fc1ccc(C2(Nc3ccc(-c4ccc5[nH]cnc5c4)nn3)CCC2)cc1 [(6-benzimidazol-5-ylpyridazin-3-yl)[(4-fluorophenyl)cyclobutyl]amine],A (A=<1 uM),–,–
Fc1cccnc1C1(CNc2ccc(-c3ccc4[nH]cnc4c3)nn2)CCC1 [(6-benzimidazol-5-ylpyridazin-3-yl){[(3-fluoro(2-pyridyl))cyclobutyl]methyl}amine],–,A (A=<1 uM),–
Fc1cccnc1C1(Nc2ccc(-c3ccc4nc[nH]c4c3)nn2)CCC1 [(6-benzimidazol-6-ylpyridazin-3-yl)[(3-fluoro(2-pyridyl))cyclobutyl]amine],B (B=1-10 uM),–,–
Fc1cccnc1C1(CNc2ccc(-c3ccc4n[nH]nc4c3)nn2)CCC1 [(6-benzotriazol-6-ylpyridazin-3-yl){[(3-fluoro(2-pyridyl))cyclobutyl]methyl}amine],–,A (A=<1 uM),–
Fc1cccnc1C1(Nc2ccc(C3=CCCCC3)nn2)CCC1 [(6-cyclohex-1-enylpyridazin-3-yl)[(3-fluoro(2-pyridyl))cyclobutyl]amine],C (C=10-20 uM),–,–
Fc1cccnc1C1(CNc2ccc(C3=CCCCC3)nn2)CCC1 [(6-cyclohex-1-enylpyridazin-3-yl){[(3-fluoro(2-pyridyl))cyclobutyl]methyl}amine],A (A=<1 uM),–,–
Fc1cccnc1C1(Nc2ccc(C3CCCCC3)nn2)CCC1 [(6-cyclohexylpyridazin-3-yl)[(3-fluoro(2-pyridyl))cyclobutyl]amine],C (C=10-20 uM),–,–
Fc1cccnc1C1(CNc2ccc(C3CCCCC3)nn2)CCC1 [(6-cyclohexylpyridazin-3-yl){[(3-fluoro(2-pyridyl))cyclobutyl]methyl}amine],B (B=1-10 uM),–,–
CCc1ccc(NCC(C)(C)c2ccc(F)cc2)nn1 [(6-ethylpyridazin-3-yl)[2-(4-fluorophenyl)-2-methylpropyl]amine],–,C (C=10-20 uM),–

SMILES,Mean AC1.4 [1],Mean AC1.4 [2],further results
CCc1ccc(NCC2(c3ncccc3F)CCC2)nn1 [(6-ethylpyridazin-3-yl){[(3-fluoro(2-pyridyl))cyclobutyl]meth-yl}amine],D (D=>20 uM),–,–
CC(C)(CNc1ccc(-c2ccc3[nH]nc(NCCN)c3c2)nn1)c1ccc(F)cc1 [(6-{3-[(2-aminoethyl)amino](1H-indazol-5-yl)}pyridazin-3-yl)[2-(4-fluorophenyl)-2-methylpropyl]amine],–,A (A=<1 uM),–
NCCNc1n[nH]c2ccc(-c3ccc(NCC4(c5ncccc5F)CCC4)nn3)cc12 [(6-{3-[(2-aminoethyl)amino](1H-indazol-5-yl)}pyridazin-3-yl){[(3-fluoro(2-pyridyl))cyclobutyl]methyl}amine],–,A (A=<1 uM),–
CC(C)(CNc1ccc(C(=O)NCc2cc[nH]n2)nn1)c1ccc(F)cc1 [(6-{[2-(4-fluorophenyl)-2-methylpropyl]amino}pyridazin-3-yl)-N-(pyrazol-3-ylmethyl)carboxamide],–,C (C=10-20 uM),–
CC(C)(CNc1ccc(C(=O)NCC2CCC(=O)N2)nn1)c1ccc(F)cc1 (stereo not shown) [(6-{[2-(4-fluorophenyl)-2-methylpropyl]amino}pyridazin-3-yl)-N-[(5-oxopyrrolidin-2-yl)methyl]carboxamide],–,C (C=10-20 uM),–
CC(C)(CNc1ccc(C(=O)Nc2ccn[nH]2)nn1)c1ccc(F)cc1 [(6-{[2-(4-fluorophenyl)-2-methylpropyl]amino}pyridazin-3-yl)-N-pyrazol-5-ylcarboxamide],–,D (D=>20 uM),–
"O=C(NCc1cnc(-c2ccc(NCC3(c4ncccc4F)CCC3)nn2)s1)[C@H]1CCCN1 [((2R)pyrrolidin-2-yl)-N-({2-[6-({[(3-fluoro(2-pyridyl))cyclobutyl]methyl}ami-no)pyridazin-3-yl](1,3-thiazol-5-yl)}methyl)carboxamide]",A (A=<1 uM),–,–
"O=C(NCc1cnc(-c2ccc(NCC3(c4ncccc4F)CCC3)nn2)s1)[C@H]1C[C@@H](F)CN1 [((2R,4R)-4-fluoropyrrolidin-2-yl)-N-({2-[6-({[(3-fluoro(2-pyridyl))cyclobutyl]methyl}ami-no)pyridazin-3-yl](1,3-thiazol-5-yl)}methyl)carboxamide]",A (A=<1 uM),–,–
"O=CN1CC(F)(F)C[C@H]1C(=O)NCc1cnc(-c2ccc(NCC3(c4ncccc4F)CCC3)nn2)s1 [((2S)-4,4-difluoro-1-formylpyrrolidin-2-yl)-N-({2-[6-({[(3-fluoro(2-pyridyl))cyclobutyl]methyl}ami-no)pyridazin-3-yl](1,3-thiazol-5-yl)}methyl)carboxamide]",A (A=<1 uM),–,–
"O=C(NCc1cnc(-c2ccc(NCC3(c4ncccc4F)CCC3)nn2)s1)[C@@H]1CC(F)(F)CN1 [((2S)-4,4-difluoropyrrolidin-2-yl)-N-({2-[6-({[(3-fluoro(2-pyridyl))cyclobutyl]methyl}ami-no)pyridazin-3-yl](1,3-thiazol-5-yl)}methyl)carboxamide]",A (A=<1 uM),–,–
"CC(=O)N1CCN[C@H](C(=O)NCc2cnc(-c3ccc(NCC4(c5ncccc5F)CCC4)nn3)s2)C1 [((2S)-4-acetylpiperazin-2-yl)-N-({2-[6-({[(3-fluoro(2-pyridyl))cyclobutyl]methyl}ami-no)pyridazin-3-yl](1,3-thiazol-5-yl)}methyl)carboxamide]",A (A=<1 uM),–,–
"O=C1CC[C@@H](C(=O)NCc2cnc(-c3ccc(NCC4(c5ncccc5F)CCC4)nn3)s2)N1 [((2S)-5-oxopyrrolidin-2-yl)-N-({2-[6-({[(3-fluoro(2-pyridyl))cyclobutyl]methyl}ami-no)pyridazin-3-yl](1,3-thiazol-5-yl)}methyl)carboxamide]",A (A=<1 uM),–,–
"O=C(NCc1cnc(-c2ccc(NCC3(c4ncccc4F)CCC3)nn2)s1)[C@@H]1CCN1 [((2S)azetidin-2-yl)-N-({2-[6-({[(3-fluoro(2-pyridyl))cyclobutyl]methyl}ami-no)pyridazin-3-yl](1,3-thiazol-5-yl)}methyl)carboxamide]",–,–,"Mean AC1.4 (median AC1.4 reported as class, procedure of Example 39): A (A=<1 uM)"
"O=C(NCc1cnc(-c2ccc(NCC3(c4ncccc4F)CCC3)nn2)s1)[C@@H]1CCCN1 [((2S)pyrrolidin-2-yl)-N-({2-[6-({[(3-fluoro(2-pyridyl))cyclobutyl]methyl}ami-no)pyridazin-3-yl](1,3-thiazol-5-yl)}methyl)carboxamide]",A (A=<1 uM),–,–
"CC(C)(CNc1ccc(-c2ncc(CNC(=O)[C@@H]3CCCN3)s2)nn1)c1ncccc1F [((2S)pyrrolidin-2-yl)-N-{[2-(6-{[2-(3-fluoro(2-pyridyl))-2-methylpropyl]amino}pyridazin-3-yl)(1,3-thiazol-5-yl)]methyl}carboxamide]",B (B=1-10 uM),–,–
"O=C(NCc1cnc(-c2ccc(NCC3(c4ncccc4F)CCC3)nn2)s1)[C@@H]1CS(=O)(=O)CCN1 [((3R)-1,1-dioxo(1,4-thiazaperhydroin-3-yl))-N-({2-[6-({[(3-fluoro(2-pyridyl))cyclobutyl]methyl}ami-no)pyridazin-3-yl](1,3-thiazol-5-yl)}methyl)carboxamide]",A (A=<1 uM),–,–
"O=C(NCc1cnc(-c2ccc(NCC3(c4ncccc4F)CCC3)nn2)s1)[C@H]1CS(=O)(=O)CCN1 [((3S)-1,1-dioxo(1,4-thiazaperhydroin-3-yl))-N-({2-[6-({[(3-fluoro(2-pyridyl))cyclobutyl]methyl}ami-no)pyridazin-3-yl](1,3-thiazol-5-yl)}methyl)carboxamide]",A (A=<1 uM),–,–
"O=C1CC[C@H](C(=O)NCc2cnc(-c3ccc(NCC4(c5ncccc5F)CCC4)nn3)s2)CN1 [((3S)-6-oxo(3-piperidyl))-N-({2-[6-({[(3-fluoro(2-pyridyl))cyclobutyl]methyl}ami-no)pyridazin-3-yl](1,3-thiazol-5-yl)}methyl)carboxamide]",A (A=<1 uM),–,–
